{"source": "EPA's ToxValDB 9.5 (doi:10.2903/j.efsa.2013.3212)", "key": {"Typhlodromus pyri": {"system": "Typhlodromus pyri", "assay": "LR50; higher = less toxic"}, "Apis mellifera": {"system": "Apis mellifera", "conditions": "acute; duration: 48 hours; oral; unspecified; mortality"}, "Rattus norvegicus": {"system": "Rattus norvegicus", "conditions": "for NOAEL: hematological"}, "Oncorhynchus mykiss": {"system": "Oncorhynchus mykiss", "conditions": "acute; duration: 96 hours; mortality"}, "Anas platyrhynchos": {"system": "Anas platyrhynchos", "conditions": "for LD50: oral, mortality"}, "Tagia sp.": {"system": "Tagia sp.", "conditions": "acute; duration: 14 days; mortality"}, "Colinus virginianus": {"system": "Colinus virginianus", "conditions": "reproduction developmental; reproduction"}, "Pleurozium sp.": {"system": "Pleurozium sp.", "conditions": "acute; duration: 72 hours; biomass"}, "Daphnia magna": {"system": "Daphnia magna", "conditions": "chronic/long-term; duration: 21 days; reproduction"}, "Canidae": {"system": "Canidae", "conditions": "chronic; duration: 1 years; oral; Dog Other; hematological"}, "Plant": {"system": "Plant", "conditions": "not reported; no effects"}, "Coturnix japonica": {"system": "Coturnix japonica", "conditions": "acute, oral, mortality"}}}
{"smiles": "CCCCCCCCCCCCC1=C(OC(C)=O)C(=O)c2ccccc2C1=O", "note": "[Acequinocyl]", "values": [{"measurement": "LR50", "setting": "Typhlodromus pyri; acute, duration: 7 days, mortality", "value": 8.52, "unit": "g/ha"}, {"measurement": "LR50", "setting": "Typhlodromus pyri; not reported, reproduction", "value": 10, "unit": "g/ha"}, {"measurement": "LD50", "setting": "Apis mellifera", "value": "> 100", "unit": "µg/piece"}, {"measurement": "LD50", "setting": "Rattus norvegicus; acute, oral, mortality", "value": "> 4860", "unit": "mg/kg"}, {"measurement": "NOAEL", "setting": "Rattus norvegicus; chronic, duration: 2 years", "value": 2.3, "unit": "mg/kg-day"}, {"measurement": "NOAEL", "setting": "Rattus norvegicus; repeat dose other, oral", "value": 8, "unit": "mg/kg-day"}, {"measurement": "NOAEL", "setting": "Rattus norvegicus; reproduction developmental", "value": 6.9, "unit": "mg/kg-day"}, {"measurement": "LC50", "setting": "Oncorhynchus mykiss", "value": 65, "unit": "µg/mL"}, {"measurement": "LD50", "setting": "Anas platyrhynchos; acute, unspecified", "value": "> 1940", "unit": "mg/kg"}, {"measurement": "NOEL", "setting": "Anas platyrhynchos; reproductive, reproduction", "value": 7.48, "unit": "mg/kg"}, {"measurement": "LD50", "setting": "Anas platyrhynchos; short-term, feed", "value": "> 1340", "unit": "mg/kg"}, {"measurement": "LC50", "setting": "Tagia sp.", "value": "> 1000", "unit": "mg/kg"}, {"measurement": "NOEL", "setting": "Colinus virginianus", "value": 217, "unit": "mg/kg-day"}, {"measurement": "LC50", "setting": "Pleurozium sp.", "value": 0.93, "unit": "µg/mL"}, {"measurement": "NOEC", "setting": "Daphnia magna", "value": 0.00098, "unit": "mg/L"}, {"measurement": "NOAEL", "setting": "Canidae", "value": 5, "unit": "mg/kg-day"}, {"measurement": "LEL", "setting": "Plant", "value": 5000, "unit": "g/ha"}, {"measurement": "LD50", "setting": "Coturnix japonica; diet", "value": "> 847", "unit": "mg/kg"}, {"measurement": "LD50", "setting": "Coturnix japonica", "value": "> 1940", "unit": "mg/kg"}]}
